Measurements taken from US5196410A, “Transdermal flux enhancing compositions” (priority 1991, dated 1993).
≈ marks a conversion by molar mass, not a printed value. Structures can show the parent of a compound that is named as a salt. Where two headings read alike, the source gives them in different places. One block for each compound: values may come before it.

Legend:
[1] = cited from earlier work
[2] = type: in vitro ADME, porcine; conditions: 32° C.
Protocol: Samples were removed periodically from the receiver side of the diffusion cell, mixed with a Z0 scintillation cocktail (Scintisol, Isolabs, Inc., Akron, OH) and counted for several minutes in a liquid scintillation counter (Model Mark III-6881, Tracor Analytical, Elk Grove Village, IL). Following an initial lag time of about 6 hours, the amount of
salicylic acid appearing in the receiver side was linear with time for the duration of the experiment (routinely 24 to 48 hours). […] This value, when divided by the specific acitivity of salicyclic acid in the saturated solution (approximately 300 dpm/mg) and the area of exposed skin (0.2 cm^2), yielded the flux (mg/cm^2/ hr). Samples removed from the donor side at the beginning and end of the experiment contained, within error, the same amount of salicylic acid. Thus, constant concentration of the permeant was maintained on the donor side throughout the experiment.

[3] = Saturation concentration of drug in vehicle
[4] = Infrared spectra of fatty acid treated porcine stratum corneum; conditions: C-H antisymmetric stretching; stratum corneum treated with […] fatty acid in ethanol, 30% (w/w) water
Protocol: (§1) Stratum corneum sheets were prepared from porcine skin by trypsin treatment. Thus, full thickness porcine skin samples were dermatomed to 350 μm thickness and spread, stratum corneum side up, on filter paper saturated with 0.5% crude trypsin in phosphate buffered saline at pH 7.4 (Sorensen's buffer). After several hours at 37° C. the stratum corneum was peeled away, washed in soybean trypsin inhibitor, water and air dried. Samples were stored desiccated at room temperature until used. Prior to use, dry skin samples of known weight were incubated for two hours in an 0.15M solution of the appropriate fatty acid in ethanol, the samples were then washed for ten seconds in ethanol, spread on wire mesh, dried over a desiccant and the dry sample reweighed. The stratum corneum samples were then held for several days in a chamber at 22° C., 95% relative humidity, during which the stratum corneum samples equilibrated to a water content of 30% (w/w).
Infrared spectra were obtained with a Fourier Transform Infrared Spectrometer^4 (FTIR) equipped with a liquid nitrogen cooled mercury-cadmium telluride detector. In order to prevent water loss, hydrated samples were sealed between zinc sulfide windows while maintained at 22° C., 95% relative humidity. Sealed samples were placed in the spectrometer where an average of 127 scans were obtained in about six minutes for each of the fatty acid treatments. The digitized data were transferred to a computer (Apple IIe) for determination of frequency and bandwidth of the C--H antisymmetric stretching absorbance. Due to the digital nature of the FTIR instrument, absorbance and frequency data exist only in discrete increments. With the instrument used, the exact value of any frequency point could only be determined with a precision not greater than 2.7 cm^-1. The peak frequency was estimated with much greater precision, however, using a center of gravity algorithm for digitized data reported by Cameron et al., Applied Spectr., 36 245-250 (1982).

[5] = Differential scanning calorimetry of fatty acid treated porcine stratum corneum; conditions: stratum corneum treated with […] fatty acid in ethanol, 30% (w/w) water
Protocol: as §1
The differential scanning calorimeter^5 was used at a scan rate of 0.75° C./minute. Duplicate samples from each of the above FTIR experiments were combined for DSC measurements. Alternately, stratum corneum samples of known weight (about 20 mg) were treated with each fatty acid in the same manner described above. Treated samples were hydrated for several days at 95% R.H., 22° C. and reweighed.

Structure (SMILES): CCCCCCCCCCCCN1CCCCCC1=O [Azone, 1-dodecylazacycloheptan-2-one]
ability to enhance percutaneous penetration ([1]; Stoughton, Arch. Derm.): ability to enhance percutaneous penetration | enhancement of dermal penetration ([1]; flurbiprofen in propylene glycol and other solvents): enhance dermal penetration

Structure (SMILES): O=C(O)c1ccccc1O [Salicylic acid, salicylic acid]
initial lag time ([2]; salicylic acid in receiver): about 6 hours | Flux of Salicylic Acid ([2]; saturated salicylic acid in ethanol, no fatty acid (ethanol control)): 1.31 mg/cm^2 /hr | solubility ([3]; ethanol, organic solvent or mixture): 310 mg/mL (≈ 2240 mM)

solubility ([3]; 30% ethanol/acetate buffer, pH 5, organic solvent or mixture): 8.95 mg/mL
Structure (SMILES): COc1cc2nc(N3CCN(C(=O)C4COc5ccccc5O4)CC3)nc(N)c2cc1OC (stereo not drawn) [doxazosin mesylate]

Structure (SMILES): CCCCCC/C=C/CCCCCCCCCC(=O)O [trans-vaccenic, trans-vaccenic acid]
Peak IR Frequency [4]: 2920 cm⁻¹ | DSC Tm (temperature of the transition maximum) [5]: 61.0 °C | Flux of Salicylic Acid ([2]; saturated salicylic acid in ethanol with […] of the fatty acid): 1.11 mg/cm^2 /hr
